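Five concentrations, 48 hours, 96-well plates. GI50 = concentration required for 50% inhibition of growth.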 Active and inactive are the calls of the source. No stated cut-off is given here; in the data, active = GI50 up to about 1.1 µM and inactive = higher.
Tests used:
Assay in all cases: DTP human tumour cell line panel, 48 h
DLD-1 = test system: DLD-1
DMS-273 = test system: DMS-273
HOP-62 = test system: HOP-62
KM-20L2 = test system: KM-20L2
M19-MEL = test system: M19-MEL
MCF7 = test system: MCF7
NCI/ADR-RES = test system: NCI/ADR-RES
RXF 393 = test system: RXF 393
SF-295 = test system: SF-295
SK-MEL-2 = test system: SK-MEL-2
SNB-78 = test system: SNB-78
UACC-62 = test system: UACC-62
XF498 = test system: XF498
LXFL 529 = test system: LXFL 529
ACHN = test system: ACHN
BT-549 = test system: BT-549
DU-145 = test system: DU-145
MDA-MB-435 = test system: MDA-MB-435
MDA-N = test system: MDA-N
T47D = test system: T47D

SMILES	GI50 (DLD-1)	GI50 (DMS-273)	GI50 (HOP-62)	GI50 (KM-20L2)	GI50 (M19-MEL)	GI50 (MCF7)	GI50 (NCI/ADR-RES)	GI50 (RXF 393)	GI50 (SF-295)	GI50 (SK-MEL-2)	GI50 (SNB-78)	GI50 (UACC-62)	GI50 (XF498)	GI50 (LXFL 529)	GI50 (ACHN)	GI50 (BT-549)	GI50 (DU-145)	GI50 (MDA-MB-435)	GI50 (MDA-N)	GI50 (T47D)
Cc1c2cnccc2c(C)c2c1c1ccccc1n2CCCCCCNCc1ccccc1	0.879 µM (active)	1.21 µM (inactive)	4.17 µM (inactive)	1.49 µM (inactive)	2.09 µM (inactive)	1.45 µM (inactive)	0.74 µM (active)	2.04 µM (inactive)	1.82 µM (inactive)	2.22 µM (inactive)	1.96 µM (inactive)	2.32 µM (inactive)	2.29 µM (inactive)	–	–	–	–	–	–	–
O=C1C(Cl)N(c2ccccc2)C1c1c[nH]c2ccccc12 (centres undefined)	–	–	> 100 µM (inactive)	> 100 µM (inactive)	> 100 µM (inactive)	–	–	> 100 µM (inactive)	> 100 µM (inactive)	> 100 µM (inactive)	–	> 100 µM (inactive)	> 100 µM (inactive)	> 100 µM (inactive)	–	–	–	–	–	–
c1ccc2cc3n[se]nc3cc2c1	62.4 µM (inactive)	> 100 µM (inactive)	–	> 100 µM (inactive)	–	–	–	> 100 µM (inactive)	39.4 µM (inactive)	> 100 µM (inactive)	> 100 µM (inactive)	> 100 µM (inactive)	–	> 100 µM (inactive)	> 100 µM (inactive)	–	–	–	–	–
COC(OC)C1OC(CO)C(n2cc(F)c(=O)[nH]c2=O)C1O (centres undefined)	–	–	> 100 µM (inactive)	–	–	> 100 µM (inactive)	> 100 µM (inactive)	> 100 µM (inactive)	> 100 µM (inactive)	> 100 µM (inactive)	–	> 100 µM (inactive)	–	–	> 100 µM (inactive)	> 100 µM (inactive)	21.4 µM (inactive)	> 100 µM (inactive)	> 100 µM (inactive)	25.4 µM (inactive)
COc1ccc2c(c1)CC1Cc3ccccc3CCN1C2 (centres undefined)	–	–	6.14 µM (inactive)	–	–	74.5 µM (inactive)	52 µM (inactive)	25.7 µM (inactive)	29.2 µM (inactive)	44 µM (inactive)	–	55.1 µM (inactive)	–	–	64 µM (inactive)	> 100 µM (inactive)	61.2 µM (inactive)	34.2 µM (inactive)	47.9 µM (inactive)	35.2 µM (inactive)
COc1nc2ccc(CNc3ccc(C(=O)NC(CCC(=O)O)C(=O)O)cc3)cc2nc1OC (centres undefined)	–	–	> 100 µM (inactive)	–	–	> 100 µM (inactive)	> 100 µM (inactive)	> 100 µM (inactive)	> 100 µM (inactive)	> 100 µM (inactive)	–	> 100 µM (inactive)	–	–	> 100 µM (inactive)	> 100 µM (inactive)	> 100 µM (inactive)	> 100 µM (inactive)	> 100 µM (inactive)	> 100 µM (inactive)
C/C(=C1/N=C(c2cc([N+](=O)[O-])ccc2Cl)N(c2ccc(Br)cc2)C1=O)c1cc2ccccc2oc1=O	22.1 µM (inactive)	–	> 100 µM (inactive)	17.6 µM (inactive)	5.89 µM (inactive)	–	–	–	80.5 µM (inactive)	22.6 µM (inactive)	31.6 µM (inactive)	18.2 µM (inactive)	–	6.78 µM (inactive)	6 µM (inactive)	–	–	–	–	–
O=C(O)c1cc2sc(C(=O)O)cc2s1	> 100 µM (inactive)	> 100 µM (inactive)	> 100 µM (inactive)	> 100 µM (inactive)	> 100 µM (inactive)	–	–	> 100 µM (inactive)	> 100 µM (inactive)	–	> 100 µM (inactive)	> 100 µM (inactive)	> 100 µM (inactive)	> 100 µM (inactive)	–	–	–	–	–	–
O=c1oc2ccccc2n1P(=O)(n1c(=O)oc2ccccc21)n1c(=O)oc2ccccc21	> 100 µM (inactive)	> 100 µM (inactive)	> 100 µM (inactive)	> 100 µM (inactive)	60.3 µM (inactive)	–	–	> 100 µM (inactive)	> 100 µM (inactive)	> 100 µM (inactive)	> 100 µM (inactive)	> 100 µM (inactive)	> 100 µM (inactive)	> 100 µM (inactive)	> 100 µM (inactive)	–	–	–	–	–
O=C1OC2(OC2c2ccc(Cl)cc2)c2ccccc21 (centres undefined)	> 100 µM (inactive)	> 100 µM (inactive)	20.4 µM (inactive)	> 100 µM (inactive)	> 100 µM (inactive)	–	–	62.7 µM (inactive)	85.7 µM (inactive)	> 100 µM (inactive)	–	> 100 µM (inactive)	43.4 µM (inactive)	22.7 µM (inactive)	94.2 µM (inactive)	–	–	–	–	–
C=CCP(=O)(CC=C)C(Cl)Cl	–	–	> 100 µM (inactive)	–	–	> 100 µM (inactive)	> 100 µM (inactive)	–	> 100 µM (inactive)	> 100 µM (inactive)	–	–	–	–	> 100 µM (inactive)	–	> 100 µM (inactive)	–	> 100 µM (inactive)	> 100 µM (inactive)
O=[N+]([O-])C(=C/c1ccccc1)/C(=C\c1ccccc1)[N+](=O)[O-]	–	–	19.1 µM (inactive)	–	–	14.9 µM (inactive)	18.7 µM (inactive)	10.2 µM (inactive)	18.7 µM (inactive)	20.1 µM (inactive)	–	16.6 µM (inactive)	–	–	16.9 µM (inactive)	17.6 µM (inactive)	16.1 µM (inactive)	16.5 µM (inactive)	17.1 µM (inactive)	23.8 µM (inactive)
COc1cc2c(cc1OC)-c1cc3ccccc3c(=O)n1CC2	–	–	5.19 µM (inactive)	–	–	28.3 µM (inactive)	25.2 µM (inactive)	2.33 µM (inactive)	15.3 µM (inactive)	11.7 µM (inactive)	–	18.2 µM (inactive)	–	–	37.5 µM (inactive)	29.2 µM (inactive)	25.6 µM (inactive)	22.8 µM (inactive)	28.2 µM (inactive)	21.8 µM (inactive)
c1ccc(/N=C2\SC3=NCCN3\C2=N/c2ccccc2)cc1	–	–	18.7 µM (inactive)	–	–	10.7 µM (inactive)	28 µM (inactive)	15.2 µM (inactive)	17.5 µM (inactive)	19.9 µM (inactive)	–	7.38 µM (inactive)	–	–	–	15.2 µM (inactive)	13.2 µM (inactive)	15.6 µM (inactive)	15.7 µM (inactive)	9.12 µM (inactive)
NC1(C(=O)O)CCCC1 [CYCLOLEUCINE]	> 625 µM (inactive)	> 625 µM (inactive)	> 625 µM (inactive)	> 625 µM (inactive)	> 625 µM (inactive)	> 625 µM (inactive)	> 625 µM (inactive)	> 625 µM (inactive)	> 625 µM (inactive)	> 625 µM (inactive)	> 244 µM (inactive)	> 625 µM (inactive)	5.77 µM (inactive)	–	–	–	–	–	–	–
Nc1n[nH]c2nc3ccccc3nc12 [QUINOXALINE1]	–	–	61 µM (inactive)	–	–	61.2 µM (inactive)	> 100 µM (inactive)	27.9 µM (inactive)	> 100 µM (inactive)	> 100 µM (inactive)	–	45 µM (inactive)	–	–	36 µM (inactive)	64.6 µM (inactive)	63.5 µM (inactive)	> 100 µM (inactive)	> 100 µM (inactive)	–

Source: ChEMBL document CHEMBL1201862, “PubChem BioAssay data set” (2004)
